Drawing on publication doi:10.1101/2025.09.05.673737v1 (biorxiv, 2025), this text covers EC50 for two compounds.

This assay addresses T1, ArpA (Streptomyces griseus, UniProt Q9ZN78).
T1 sequence (Q9ZN78 1-276): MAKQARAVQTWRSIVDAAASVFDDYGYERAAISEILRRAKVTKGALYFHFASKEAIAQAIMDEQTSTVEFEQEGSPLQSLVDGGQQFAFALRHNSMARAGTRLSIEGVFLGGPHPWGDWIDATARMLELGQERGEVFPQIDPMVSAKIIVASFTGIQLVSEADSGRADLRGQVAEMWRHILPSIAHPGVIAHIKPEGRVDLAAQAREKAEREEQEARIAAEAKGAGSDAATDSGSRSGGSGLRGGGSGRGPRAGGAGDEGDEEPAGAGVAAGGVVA
Kind of assay: E. coli pTOTAL biosensor, GFP derepression dose-response. In kind it is cell-based.

In general, EC50 refers to the concentration giving half of the maximal effect. `CC(C)CCCCC(=O)C1C(=O)OC[C@H]1CO` (some centres unmarked) [A-factor] showed a 50% effective concentration (EC50) of 0.39 µM.
With `CC(C)CCCC[C@@H](O)[C@@H]1C(=O)OC[C@H]1CO` [SCB1] the figure was 18.1 µM.
